Here are results for three compounds from patent US20240360417A1, “CELL THERAPEUTIC AGENT FOR CANCER TREATMENT AND COMBINATION THERAPY WITH SAME” (Cell&Brain Co., Ltd, priority 2015, published 2024).

Molecules are shown by their SMILES.

One experiment deals with U87/GFP. Description: In vitro combination therapy of F cells + 5-FC with irinotecan (isobologram). In kind it is cell-based. To be noted: 144 h; U87/GFP co-cultured with F cells (MSC/CD), 6 days; read-out: IC50 values obtained by treatment alone.
For experiment [1], the system named is U87MG glioma cells expressing LacZ. Description: In vivo combination therapy with temozolomide, orthotopic brain tumor model. As to conditions: survival measured up to 90 days.
Experimental: On the 6th days after transplantation of U87MG glioma cells expressing LacZ, the F cells prepared in Preparation Example 2 were suspended in a Plasma Solution A, followed by centrifugation at 500×g for 5 minutes. The supernatant was discarded, and the washing procedure was repeated twice. Then, the cell suspension was prepared to have a concentration of 3×10^5/6 μl. The cell suspension was transplanted at a rate of 0.3 μl/min at the brain coordinates of AP=+0.5 mm, ML=−1.8 mm, and DV=−3 mm. From the next day after the cell transplantation, 5-FC (15 mg/ml physiological saline) was intraperitoneally injected at a dose of 500 mg/kg for one week. […] On 28th day, brain tissues were obtained from 8 animals in each animal group and X-gal staining was performed in the same manner as in Example 2 to measure the size of brain tumor.

Experimental for U87/GFP: 10,000 U87/GFP and 10,000 F cells (MSC/CD) were cultured in a 12-well plate. From the next day, the cells were treated with Irinotecan (Sigma) at a concentration of 0 to 30 μM and the prodrug 5-FC at a concentration of 0 to 300 μM, and cultured for 6 days while replacing with a new medium containing the drug once every two days. On the 7th day, the culture solution was removed, 200 μl of 1× passive lysis buffer was then added to each well, and each well was allowed to stand at 4° C. for 10 minutes. The cell lysate was collected and centrifuged at 12,000 rpm for 5 minutes to obtain supernatant. 100 μl of the supernatant was transferred to a black 96-well plate in which light is blocked, and the intensity of fluorescence was measured under conditions of excitation 488 nm and emission 530 nm using a fluorimeter (GEMINI EM).

One may read the IC50 as the midpoint of a concentration-inhibition curve. In the case of `CCc1c2c(nc3ccc(OC(=O)N4CCC(N5CCCCC5)CC4)cc13)-c1cc3c(c(=O)n1C2)COC(=O)[C@]3(O)CC` [irinotecan], the IC50 in the experiment on U87/GFP worked out at 3.2 µM.

Turning to `Nc1nc(=O)[nH]cc1F` [5-FC, 5-fluorocytosine], the IC50 in the experiment on U87/GFP came to 73.6 µM.

Turning to `Cn1nnc2c(C(N)=O)ncn2c1=O` [temozolomide], the median survival in experiment [1] is recorded as 42 days.
